Results reported in patent publication US5686458A, “Quinazoline deriviates for treating peptic ulcer” (Yuhan Corporation, priority 1992, dated 1997).
Where “and” joins values, the source holds several entries; their conditions need not be identical. Equal entries are not always repeated. Where two headings read alike, the source gives them in different places.

How the values were obtained:
gastric secretion = test: Inhibition of Gastric Secretion, pylorus-ligated rats (Experiment 2); type: in vivo, Sprague-Dawley rats; settings: relative to omeprazole (equation III), 20 mg/kg intraduodenally, pylorus-ligated rats, 5 hours
How it was run: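 Sprague-Dawley rats (170±10 g, n=5/group), fasted 24 h, pylorus-ligated under ether; compounds given intraduodenally at 20 mg/kg in 30% aqueous PEG 400. Gastric juice collected after 5 h, volume and acidity measured; relative volume, acid concentration and acid output computed versus vehicle and omeprazole groups.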

[1] = tested on: gastric secretion stimulated by pentagastrin; test: Inhibition of gastric secretion stimulated by pentagastrin (Experiment 3-2); type: in vivo, Sprague-Dawley male rats; settings: intravenous; for ED50: Rattus norvegicus
Procedure: The same procedures as in Experiment 3-1 were carried out, except that as a secretion stimulating substance, pentagastrin was infused into the left jugular vein of the rats at a dosage of 24 μg/2 ml/200 g/hr.

[2] = target: T1, Proton Pump (H^+ /K^+ ATPase) (Oryctolagus cuniculus, UniProt P27112); test: Inhibition of Proton Pump (H+/K+ ATPase) Activity, in vitro enzyme reaction (Experiment 1); type: biochemical, New Zealand white rabbit
T1 construct: The microsomes thus obtained were used as an enzyme source of the in vitro enzyme reaction study of proton pump; from tissue; host or cells: rabbit stomach, mucosal scrapings, microsomes (180,000 g pellet)
How it was run: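 Rabbit gastric mucosal microsomes (100 μg/ml) in 50 mM Tris-HCl pH 7.2 with 8 mM MgCl2, 100 mM KCl and 20 mM NH4Cl were preincubated with compound for 15 min at 37 °C. Reaction ran 30 min at 37 °C with 6.7 mM ATP; released phosphate was measured. K+-stimulated activity (Mg/K minus Mg alone) gave IC50 via Litchfield-Wilcoxon.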

proton pump = settings: background statement; cited from earlier work

T1 sequence (P27112 whole entry): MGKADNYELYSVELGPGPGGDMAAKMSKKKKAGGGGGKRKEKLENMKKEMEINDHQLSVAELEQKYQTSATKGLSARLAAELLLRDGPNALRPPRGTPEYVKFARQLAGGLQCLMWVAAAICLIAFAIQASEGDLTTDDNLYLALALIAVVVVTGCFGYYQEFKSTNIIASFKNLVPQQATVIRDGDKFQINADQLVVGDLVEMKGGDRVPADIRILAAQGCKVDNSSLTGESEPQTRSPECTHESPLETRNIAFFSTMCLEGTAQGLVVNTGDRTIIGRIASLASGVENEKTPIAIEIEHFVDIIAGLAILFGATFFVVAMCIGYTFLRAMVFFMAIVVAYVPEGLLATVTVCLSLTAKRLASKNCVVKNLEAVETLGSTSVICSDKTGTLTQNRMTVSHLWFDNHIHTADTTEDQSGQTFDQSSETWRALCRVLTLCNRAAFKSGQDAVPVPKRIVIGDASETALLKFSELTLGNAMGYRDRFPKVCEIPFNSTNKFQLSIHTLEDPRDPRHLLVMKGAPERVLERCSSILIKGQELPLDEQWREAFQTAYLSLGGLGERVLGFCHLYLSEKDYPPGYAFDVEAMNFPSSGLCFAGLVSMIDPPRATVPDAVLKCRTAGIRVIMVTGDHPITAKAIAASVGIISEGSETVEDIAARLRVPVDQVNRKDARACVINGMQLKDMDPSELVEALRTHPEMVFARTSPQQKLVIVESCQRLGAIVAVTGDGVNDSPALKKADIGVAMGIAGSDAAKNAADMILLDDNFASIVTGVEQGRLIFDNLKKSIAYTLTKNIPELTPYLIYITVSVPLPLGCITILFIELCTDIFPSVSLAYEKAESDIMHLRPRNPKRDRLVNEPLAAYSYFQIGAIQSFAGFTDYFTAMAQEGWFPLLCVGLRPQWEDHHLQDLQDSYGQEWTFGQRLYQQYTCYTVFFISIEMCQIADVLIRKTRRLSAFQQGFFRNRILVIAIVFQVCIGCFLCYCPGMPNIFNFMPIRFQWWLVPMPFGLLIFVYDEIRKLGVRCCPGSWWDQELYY
T1 sequence (P18597 whole entry partner): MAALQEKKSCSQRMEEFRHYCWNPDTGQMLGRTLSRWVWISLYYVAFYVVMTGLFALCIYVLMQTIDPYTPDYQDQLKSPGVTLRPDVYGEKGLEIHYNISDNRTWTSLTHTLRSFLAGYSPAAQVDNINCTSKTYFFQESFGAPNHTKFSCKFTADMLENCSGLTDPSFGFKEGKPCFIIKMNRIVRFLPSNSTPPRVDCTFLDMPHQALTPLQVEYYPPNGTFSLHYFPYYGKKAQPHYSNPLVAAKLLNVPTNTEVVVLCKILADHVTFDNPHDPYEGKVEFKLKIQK

Row | SMILES | Relative Acid Output (gastric secretion) | The gastric secretion inhibition ([1]; 1.0 mg/kg) [%] | The gastric secretion inhibition ([1]; 3.0 mg/kg) [%] | The gastric secretion inhibition ([1]; 5.0 mg/kg) [%] | ED50 [1] [mg/kg] | Effect ratio ([2]; IC50 of Omeprazole / IC50 of test compound) | IC50 ([2]; K+-stimulated H+/K+ ATPase activity, rabbit gastric microsomes, pH 7.2, 37° C., 15 min prereaction, 30 min reaction, read-out: IC50 of test compound, inhibition (50%) of the proton pump activity) [µM] | Reversibility of the proton pump inhibition (proton pump) | The gastric secretion inhibition ([1]; 0.3 mg/kg) [%] | The gastric secretion inhibition ([1]; 0.5 mg/kg) [%] | IC50 ([2]; comparative compound, value printed on the line of each test compound, read-out: IC50 of Omeprazole, inhibition (50%) of the proton pump activity)
1 | COc1cccc2c(N3CCc4ccccc4C3C)nc(Nc3ccc(F)cc3C)nc12.Cl (stereo not shown) [Example 34, 8-Methoxy-2-(4-Fluoro-2-Methyl-Phenylamino)-4-(1-Methyl-1,2,3,4-Tetrahydroisoquinoline-2-Yl)Quinazoline Hydrochloride] | 0.97 | 41.2 | 77.0 | 110.2 | 1.31 | 5.45 | 1.7 |  |  |  | 
2 | COc1ccc2[nH]c([S+]([O-])Cc3ncc(C)c(OC)c3C)nc2c1 (stereo not shown) [Omeprazole, omeprazole, reference compound] |  | 114.3 |  |  | 0.47 |  |  | irreversible | 5.0 | 63.1 | 9.5 µM and 9.3 µM
